Assay results as given in patent US20250312416A1, “METHOD AND PHARMACEUTICAL COMPOSITION FOR CARTILAGE REGENERATION” (FAR EASTERN MEMORIAL HOSPITAL, priority 2024, published 2025).
“Also recorded” adds a separate entry of the source.

Columns and labels:
clinical-grade ADSCs [1] = experiment: Real-time PCR of chondrogenic genes in ADSCs; assay type: cell-based, human
Description: Real-time PCR analysis was conducted on day 7 for CXCL12/CXCL14 peptides treated ADSCs, evaluating the expression of COMP, SOX9, COL2A1, ACAN, ITGB1, and SOSTDC1 genes. Cells were harvested, and RNA extraction was performed using a LightCycler® (Roche Applied Science). The fold change in gene expression on the y-axis was calculated relative to the same gene expression in untreated chondrocytes. Statistical analysis was conducted using one-way ANOVA. Significance levels are denoted as follows: * p<0.05, ** p<0.01, *** p<0.001, and **** p<0.0001 for comparisons between PBS treatments and the untreated group.
Real-time PCR analysis was performed on day 7 for ADSCs treated with CXCR4 agonists, assessing the expression of COMP, SOX9, COL2A1, ACAN, ITGB1, CXCL14, and SOSTIC1 genes. Cellular harvest, RNA extraction, and gene expression quantification were conducted using a LightCycler® (Roche Applied Science). The fold change in gene expression on the y-axis was calculated relative to the same gene expression in untreated chondrocytes. Statistical analysis was executed through one-way ANOVA. Significance levels are represented as follows: * p<0.05, ** p<0.01, *** p<0.001, and **** p<0.0001, indicating the significance of comparisons between PBS treatments and the untreated group.
(§1) Alcian blue staining was used to assess the chondrogenic differentiation of ADSC pellets. […] Treatment with CXCL14-PM1, CXCL14-PM2, CXCL14-PM3, and CXCR4-PM1 was sufficient to enhance the expression of chondrogenic genes in ADSCs. On day 7, real-time PCR was performed to analyze the expression of key chondrogenic markers, including SOX9, COL2A1, COMP, ACAN, ITGB1, CXCL14, and CXCR4, in ADSCs treated with these modified peptides. ADSCs were exposed to distinct peptide modifications derived from CXCL12, CXCL14, and CXCR4 at a concentration of 10 ng for a one-day treatment, after which the medium was replaced with fresh peptide-free medium. At the end of the treatment period, RNA was extracted to evaluate the expression levels of chondrogenesis-related cytokine genes. Gene expression quantification was performed using a LightCycler system (Roche Applied Science), and fold changes were calculated relative to untreated control ADSCs. […] FIG. 16(D) provides a summary of the results for alanine substitution with positively or negatively charged amino acids in CXCL12, CXCL14, and CXCR4 peptides.
ADSCs were treated with CXCL14-P, CXCL14-P1, or CXCL14-P2, respectively, at a concentration of 10 ng for 24 hours, after which the medium was replaced with fresh peptide-free medium. On day 7, total RNA was extracted, and real-time PCR analysis was performed to assess the expression levels of key chondrogenic markers, including ACAN, COL2A1, SOX9, and COMP. Gene expression levels were quantified using a LightCycler system (Roche Applied Science), with fold changes calculated relative to untreated control ADSCs. […] Immunofluorescence staining was performed to detect Collagen Type II, SOX9, COMP, and nuclei (Hoechst 33342) in 3D ADSC spheroids (middle panel). […]
Human IPFP-MSCs and ADSCs were expanded in Dulbecco's Modified Eagle's Medium (DMEM, Gibco, cat. no 2145484) with 10% FBS under a 37° C., 5% CO2 atmosphere. MSCs collected and cell extractions were determined gene expression levels of cytokines and chondrogenic markers using a LightCycler® (Roche Applied Science). The fold change in gene expression on the y-axis was calculated based on untreated cell gene expression.

clinical-grade ADSCs [2] = experiment: Alcian blue staining of chondrogenic pellets (GAG), ADSCs; assay type: cell-based, human
Description: The chondrogenic differentiation of pellets containing clinical-grade ADSCs was assessed through Alcian blue staining.
The chondrogenic differentiation of pellets containing clinical-grade ADSCs was evaluated using Alcian blue staining.
as §1
To assess differentiation capacity, single-cell suspensions from cultured IPFP-MSCs and ADSCs were cultivated in chondrogenic medium. Alcian Blue staining was performed on day 7 to evaluate chondrogenic differentiation. The chondrogenic differentiation test was measured gene expressions of ACAN, COL2A1, SOX9, COMP, ITGB1, CXCL14 and SOSTDC1.

UC-MSCs = experiment: Real-time PCR of chondrogenic genes in UC-MSCs; assay type: cell-based; conditions: day 7 of peptide treatment
From the text: FIG. 13A provides flowchart illustrating the protocol for peptide treatment and sample collection. […] TGF-beta influenced the expression of chondrogenic genes, including ITGB1 and COMP. […] Treatment with CXCL14/CXCL12 peptides increased GAG content during chondrogenesis in the presence of TGF-beta.
To further validate the role of CXCL14-P and CXCL12-P in regulating chondrogenesis, we compared their effects on another MSC source, umbilical cord-derived mesenchymal stem cells (UC-MSCs). It is important to note that the chondrogenic induction medium contained TGF-β. During chondrogenesis, we observed that the chondrogenic patterns in UC-MSCs were lower than those in ADSCs (FIG. 12). Subsequently, we assessed the chondrogenic potential of UC-MSCs following stimulation with CXCL14-P and CXCL12-P (FIG. 13A). […] Although the expression of chondrogenic genes (FIG. 13B) and GAG content (FIG. 13C) in UC-MSCs was not as pronounced as in ADSCs, the findings confirm that CXCL14-P and CXCL12-P can robustly stimulate chondrogenesis across different MSC sources.

ADSCs = experiment: Cellular uptake of fluorescently labeled peptides by fluorescence microscopy; assay type: cell-based, human
Description: Cell-penetrating properties of CXCL14-P and CXCL12-P peptides in ADSCs were analyzed. ADSCs were incubated with 10 ng of FITC-conjugated peptides at 37° C. for one day, followed by refreshing the chondrogenic medium. Peptide internalization was evaluated through fluorescence microscopy on days 1, 3, and 7.
We further explored whether peptides derived from CXCL14 and CXCL12 have the capacity to induce chondrogenesis in MSCs from different sources. To assess their potential, ADSCs were utilized in the study to evaluate the chondrogenic capacity of CXCL14-P and CXCL12-P on day 7 (FIG. 10A). […] FIG. 11 illustrates the cell-penetrating properties of CXCL14-P and CXCL12-P peptides in ADSCs, analyzed at different time points. ADSCs were incubated with FITC-conjugated peptides for one day, after which the chondrogenic medium was refreshed. […] Collectively, these observations indicate that CXCL14-P and CXCL12-P have the ability to stimulate chondrogenesis and further amplify the effects of TGF-β during the chondrogenic process.

ITTKSVSRYRGQEH [CXCL14-P] was tested, and the “expression of chondrogenic genes (COMP, SOX9, COL2A1, ACAN, ITGB1, SOSTDC1)” value (clinical-grade ADSCs [1]; day 7, peptides compared to CXCL12/CXCL14 proteins, listed as CXCL14 peptide) was “significantly upregulated; also recorded: greater ability”, the “expression of chondrogenic genes (COMP, SOX9, COL2A1, ACAN, ITGB1)” value (clinical-grade ADSCs [1]; day 7 of treatment with peptide) was “significantly upregulated” and the chondrogenic genes (clinical-grade ADSCs [1]; in the absence of TGF-β) was “evident”. The “expression of chondrogenic genes ITGB1 and COMP” value (clinical-grade ADSCs [1]; in the presence of TGF-β, day 7) was “significantly enhanced”, the “GAG content (Alcian blue)” value (clinical-grade ADSCs [2]; in the absence of TGF-β) was “evident” and the “GAG content (Alcian blue)” value (clinical-grade ADSCs [2]; in the presence of TGF-beta) was “significantly increased”. The “GAG content (Alcian blue)” value (clinical-grade ADSCs [2]; peptides compared to CXCL14/CXCL12 proteins, listed as CXCL14 peptide) was “significantly higher; also recorded: greater ability”, the “chondrogenic gene expression (COMP, SOX9, COL2A1, ACAN, ITGB1)” value (UC-MSCs) was “significantly upregulated” and the “cellular uptake / detectability of peptide” value (ADSCs; 10 ng FAM-labeled, 24 hours then peptide-free medium, monitored to day 7) was “detectable on day 1 but became undetectable by day 7”. For the same sequence, the “peptide internalization (cell penetration)” value (ADSCs; 10 ng FITC-conjugated peptide, 37° C. for one day, observed days 1, 3, 7) was “remain detectable up to day 7”.
